Measured values: patent US10271552B2, “Heterocyclic compounds as pesticides” (Bayer CropScience Aktiengesellschaft, priority 2015, dated 2019)

Assays:
Assay type in all cases: in vivo
[1] = test system: Boophilus microplus; assay: Boophilus microplus injection test; details: 20 μg/animal injected; adult engorged female ticks; after 7 days
Procedure: Boophilus microplus—Injection Test
(§1) Solvent: dimethyl sulfoxide
To produce a suitable preparation of active compound, 10 mg of active compound are dissolved in 0.5 ml solvent, and the concentrate is diluted with solvent to the desired concentration.
Five adult engorged female ticks (Boophilus microplus) are injected with 1 μl compound solution into the abdomen. The ticks are transferred into replica plates and incubated in a climate chamber.
After 7 days egg deposition of fertile eggs is monitored. Eggs where fertility is not visible are stored in a climate chamber till hatching after about 42 days. An efficacy of 100% means all eggs are infertile; 0% means all eggs are fertile.

[2] = test system: Ctenocephalides felis; assay: whole plant or invertebrate; details: po, 48 h
Procedure: Ctenocephalides felis—Oral Test
as §1
To produce a suitable preparation of active compound, 10 mg of active compound are dissolved in 0.5 ml solvent, and the concentrate is diluted with cattle blood to the desired concentration.
Approximately 20 adult unfed cat fleas (Ctenocephalides felis) are placed in flea chambers. The blood chamber, sealed with parafilm on the bottom, are filled with cattle blood supplied with compound solution and placed on the gauze covered top of the flea chamber, so that the fleas are able to suck the blood. The blood chamber is heated to 37° C. whereas the flea chamber is kept at room temperature.
After 2 days mortality in % is determined. 100% means all the fleas have been killed; 0% means none of the fleas have been killed.

[3] = test system: Haemonchus contortus; assay: Haemonchus contortus test; details: Haemonchus contortus, 120 h, read-out: larval mortality (efficacy)
Procedure: Haemonchus contortus—Test
as §1
To produce a suitable preparation of active compound, 10 mg of active compound are dissolved in 0.5 ml solvent, and the concentrate is diluted with “Ringer's solution” to the desired concentration.
Approximately 40 larvae of the red stomach worm (Haemonchus contortus) are transferred into a test tube containing compound solution.
After 5 days the percentage of larval mortality is recorded. 100% efficacy means all larvae are killed, 0% efficacy means no larvae are killed.

[4] = test system: Meloidogyne incognita; assay: Meloidogyne incognita test; details: 20 ppm; eggs and larvae, salad seeds in sand; after 14 days
Procedure: Meloidogyne incognita—Test
Solvent: 125.0 parts by weight of acetone
To produce a suitable preparation of active compound, 1 part by weight of active compound is mixed with the stated amount of solvent, and the concentrate is diluted with water to the desired concentration.
Vessels are filled with sand, a solution of the active ingredient, a suspension containing eggs and larvae of the southern root-knot nematode (Meloidogyne incognita) and salad seeds. The salad seeds germinate and the seedlings grow. Galls develop in the roots.
After 14 days the nematicidal activity is determined on the basis of the percentage of gall formation. 100% means no galls were found and 0% means the number of galls found on the roots of the treated plants was equal to that in untreated control plants.

[5] = test system: Phaedon cochleariae; assay: Phaedon cochleariae spray test; details: foliar, 168 h, Chinese cabbage leaf disks, larvae, after 7 days
Procedure: Phaedon cochleariae—Spray Test
(§2) Solvent: 78.0 parts by weight of acetone • • 1.5 parts by weight of dimethylformamide
(§3) Emulsifier: alkylarylpolyglycol ether
(§4) To produce a suitable preparation of active compound, 1 part by weight of active compound is mixed with the stated amount of solvents and is diluted with water, containing an emulsifier concentration of 1000 ppm, to the desired concentration. Further test concentrations are prepared by dilution with emulsifier containing water.
Chinese cabbage (Brassica pekinensis) leaf disks are sprayed with a preparation of the active ingredient of the desired concentration. Once dry, the leaf disks are infested with mustard beetle larvae (Phaedon cochleariae).
After 7 days mortality in % is determined. 100% means all beetle larvae have been killed and 0% means none of the beetle larvae have been killed.

[6] = test system: Tetranychus urticae; assay: Tetranychus urticae spray test OP-resistant; details: foliar, 144 h, French bean leaf disks, all instars, after 6 days
Procedure: Tetranychus urticae—Spray Test OP-Resistant
(§5) Solvent: 78.0 parts by weight acetone • 1.5 parts by weight dimethylformamide
as §3, §4
French bean (Phaseolus vulgaris) leaf disks infected with all instars of the two spotted spidermite (Tetranychus urticae), are sprayed with a preparation of the active ingredient of the desired concentration.
After 6 days mortality in % is determined. 100% means all spider mites have been killed and 0% means none of the spider mites have been killed.

[7] = test system: Nezara viridula; assay: Nezara viridula spray test (solvent 52.5 acetone / 7 dimethylformamide); details: 96 h, barley plants, larvae, after 4 days
Procedure: (§6) Nezara viridula—Spray Test
(§7) Solvent: 52.5 parts by weight of acetone • 7 parts by weight of dimethylformamide
(§8) Emulsifier: alkylaryl polyglycolether
(§9) To produce a suitable preparation of active compound, 1 part by weight of active compound is mixed with the stated amount of solvent, and the concentrate is diluted with water, containing an emulsifier concentration of 1000 ppm, to the desired concentration. Ammonium salt and/or penetration enhancer in a dosage of 1000 ppm are added to the desired concentration if necessary.
(§10) Barley plants (Hordeum vulgare) infested with larvae of the southern green stink bug (Nezara viridula) are sprayed with a test solution containing the desired concentration of the active ingredient.
(§11) After 4 days mortality in % is determined. 100% means all the stink bugs have been killed; 0% means none of the stink bugs have been killed.

[8] = test system: Plutella xylostella; assay: Plutella xylostella spray test; details: 100 ppm; cabbage leaves, larvae; after 7 days
Procedure: Plutella xylostella—Spray Test
Solvent: 14 parts by weight of dimethylformamide
Emulsifier: alkylaryl polyglycol ether
as §4, with “solvent” for “solvents”
Cabbage leaves (Brassica oleracea) are treated by being sprayed with the preparation of the active compound of the desired concentration and are infested with larvae of the diamondback moth (Plutella xylostella).
After 7 days, mortality in % is determined. 100% means all the caterpillars have been killed and 0% means none of the caterpillars have been killed.

[9] = test system: Ctenocephalides felis; assay: Ctenocephalides felis in-vitro contact test, adult cat flea; details: 5 μg/cm^2 (=500 g/ha), after 48 hours
Procedure: Ctenocephalides felis—In-Vitro Contact Tests Adult Cat Flea
9 mg compound is solved in 1 ml acetone and diluted with acetone to the desired concentration. 250 μl of the test solution is filled in 25 ml glass test tubes and homogeneously distributed on the inner walls by rotation and tilting on a shaking device (2 h at 30 rpm). With a compound concentration of 900 ppm, an inner surface of 44.7 cm^2 and a homogeneous distribution, a dose of 5 μg/cm^2 is achieved.
After the solvent has evaporated, each test tube is filled with 5-10 adult cat fleas (Ctenocephalides felis), closed with a perforated lid and incubated in a lying position at room temperature and relative humidity. After 48 hours efficacy is determined. The fleas are patted on the ground of the tubes and are incubated on a heating plate at 45-50° C. for at most 5 minutes. Immotile or uncoordinated moving fleas, which are not able to escape the heat by climbing upwards, are marked as dead or moribund.
An efficacy of 100% means all fleas are dead or moribund; 0% means no fleas are dead or moribund.

[10] = test system: Lucilia cuprina; assay: whole plant or invertebrate; details: 48 h
Procedure: as §1
10 mg active compound are dissolved in 0.5 ml Dimethylsulfoxid. Serial dilutions are made to obtain the desired rates.
Approximately 20 1st instar larvae of the Australian sheep blowfly (Lucilia cuprina) are transferred into a test tube containing minced horse meat and compound solution of the desired concentration.
After 2 days mortality in % is determined. 100% means all the larvae have been killed; 0% means none of the larvae have been killed.

[11] = test system: Musca domestica; assay: Musca domestica test
Procedure: as §1
To produce a suitable preparation of active compound, 10 mg of active compound are dissolved in 0.5 ml solvent, and the concentrate is diluted with water to the desired concentration.
10 adult house flies (Musca domestica) are transferred into a container, containing a sponge soaked with a mixture of sugar solution and compound solution of the desired concentration.
After 2 days mortality in % is determined. 100% means all the flies have been killed; 0% means none of the flies have been killed.

[12] = test system: Diabrotica balteata; assay: Diabrotica balteata spray test; details: 160 μg/well; germinated wheat seeds, larvae; after 7 days
Procedure: Diabrotica Balteata—Spray Test
as §2, §3
as §4, with “solvent,” for “solvents”, “and the concentrate” for “and”
Soaked wheat seeds (Triticum aestivum) are placed in a multiple well plate filled with agar and some water and are incubated for 1 day to germinate (5 seeds per well). The germinated wheat seeds are sprayed with a test solution containing the desired concentration of the active ingredient. Afterwards each unit is infected with 10-20 larvae of the banded cucumber beetle (Diabrotica balteata).
After 7 days efficacy in % is determined. 100% means all the seedlings have grown up like in the untreated, uninfected control; 0% means none of the seedlings have grown.

[13] = test system: Myzus persicae; assay: Myzus persicae spray test; details: foliar, Chinese cabbage leaf disks, all instars, after 5-6 days
Procedure: Myzus persicae—Spray Test
as §5, §3, §4
Chinese cabbage (Brassica pekinensis) leaf disks infected with all instars of the green peach aphid (Myzus persicae), are sprayed with a preparation of the active ingredient of the desired concentration.
After 5-6 days mortality in % is determined. 100% means all aphids have been killed and 0% means none of the aphids have been killed.

[14] = test system: Nezara viridula; assay: Nezara viridula spray test (solvent 78.0 acetone / 1.5 dimethylformamide); details: 96 h, barley plants, larvae, after 4 days
Procedure: as §6, §2, §3
as §4, with “solvent,” for “solvents”, “and the concentrate” for “and”
as §10, §11

[15] = test system: Spodoptera frugiperda; assay: Spodoptera frugiperda spray test; details: 168 h, maize leaf sections, larvae, after 7 days
Procedure: Spodontera frugiperda—Spray Test
as §5, §3, §4
Maize (Zea mays) leaf sections are sprayed with a preparation of the active ingredient of the desired concentration. Once dry, the leaf sections are infested with fall armyworm larvae (Spodoptera frugiperda).
After 7 days mortality in % is determined. 100% means all caterpillars have been killed and 0% means none of the caterpillars have been killed.

[16] = test system: Nilaparvata lugens; assay: Nilaparvata lugens spray test (solvent 52.5 acetone / 7 dimethylformamide); details: 96 h, rice plants, larvae, after 4 days
Procedure: Nilaparvata lugens—Spray Test
as §7, §8
as §9, with “solvents” for “solvent,”, “and” for “and the concentrate”, “concentration. Further test concentrations are prepared by dilution with emulsifier containing water.” for “concentration.”
Rice plants (Oryza sativa) are treated by being sprayed with the desired concentration of the active compound and are infested with larvae of the brown planthopper (Nilaparvata lugens).
After 4 days mortality in % is determined. 100% means all planthoppers have been killed and 0% means none of the planthoppers have been killed.

Compound	efficacy (infertile eggs) [1] [%]	mortality at 100 ppm [2] [%]	nematicidal activity (gall formation) [4] [%]	mortality at 500 g/ha [5] [%]	mortality at 500 g/ha [6] [%]	mortality at 500 g/ha [7] [%]	mortality [8] [%]	also measured
O=C(Nc1nc(-c2c(F)cccc2F)ns1)c1c(F)cccc1F [Compound I-1-1, N-[3-(2,6-difluorophenyl)-1,2,4-thiadiazol-5-yl]-2,6-difluorobenzamide]	100	95	90	≥ 80	≥ 70	≥ 90		mortality at 20 ppm [3]: 80%
O=C(Nc1nc(-c2c(F)cccc2F)ns1)c1ccccc1[N+](=O)[O-] [Compound I-1-10]			100				100	
O=C(Nc1nc(-c2c(F)cccc2F)ns1)c1cccc(F)c1C(F)(F)F [Compound I-1-11]	100						100	
O=C(Nc1nc(-c2c(F)cccc2F)ns1)c1c(F)cccc1C(F)(F)F [Compound I-1-12]	100		100				100	
O=C(c1cccnc1C(F)(F)F)N(C(=O)c1cccnc1C(F)(F)F)c1nc(-c2c(F)cccc2F)ns1 [Compound I-1-31, N-[3-(2,6-Difluorophenyl)-1,2,4-thiadiazol-5-yl]-2-(trifluoromethyl)-N-{[2-(trifluoromethyl)pyridin-3-yl]carbonyl}nicotinamide]	100	100		≥ 80	≥ 70	≥ 90		efficacy (fleas dead or moribund) [9]: 100%; mortality at 100 ppm [10]: 100%; mortality at 100 ppm ([11]; Musca domestica, 48 h): 80%
O=C(Nc1nc(-c2ccccc2OC(F)(F)F)ns1)c1cccnc1C(F)(F)F [Compound I-1-55, N-{3-[2-(Trifluoromethoxy)phenyl]-1,2,4-thiadiazol-5-yl}-2-(trifluoromethyl)nicotinamide]	100	100		≥ 80	≥ 70	≥ 90		mortality at 100 ppm [10]: 100%; efficacy (seedling growth) [12]: 100%; mortality at 500 g/ha [13]: ≥ 70%; mortality at 500 g/ha [14]: ≥ 90%; mortality at 500 g/ha [15]: ≥ 80%
O=C(Nc1nc(-c2ccccc2F)ns1)c1cccnc1C(F)(F)F [Compound I-1-57]	100							mortality ([11]; 100 ppm, adult house flies, after 2 days): 100%; efficacy (seedling growth) [12]: 100%
O=C(Nc1nc(-c2cccc(C(F)(F)F)c2Cl)ns1)c1cccnc1C(F)(F)F [Compound I-1-62, N-{3-[2-Chloro-3-(trifluoromethyl)phenyl]-1,2,4-thiadiazol-5-yl}-2-(trifluoromethyl)nicotinamide]				≥ 80	≥ 70	≥ 90		mortality at 500 g/ha [13]: ≥ 70%; mortality at 500 g/ha [14]: ≥ 90%; mortality at 500 g/ha [15]: ≥ 80%; mortality at 500 g/ha [16]: ≥ 80%
